From US20240269139A1, “COMPOUNDS FOR TARGETED PROTEIN DEGRADATION OF KINASES” (DANA-FARBER CANCER INSTITUTE, INC., priority 2020, published 2024)
Where “and” joins values, the source holds several entries; their conditions need not be identical. Equal values may be shown once. Read-outs that look alike come from different tables or passages of the source.

Experiments:
Type in all cases: cell-based
[1] = test system: protein kinases (human kinome); settings: for logFC of SRC: Accession P12931-2; for logFC of FER: FER P16591-3; for logFC LCK: accession P06239-3; for logFC PTK2B: accession Q14289-2; for logFC RPS6KA1: RPS6KA1 (Q15418-2)
[2] = target: protein kinases (human kinome) (Homo sapiens, UniProt P30291); settings: for logFC of WEE1: WEE1 P30291-1
protein kinases (human kinome) (Homo sapiens, UniProt P30291), sequence (P30291 whole entry): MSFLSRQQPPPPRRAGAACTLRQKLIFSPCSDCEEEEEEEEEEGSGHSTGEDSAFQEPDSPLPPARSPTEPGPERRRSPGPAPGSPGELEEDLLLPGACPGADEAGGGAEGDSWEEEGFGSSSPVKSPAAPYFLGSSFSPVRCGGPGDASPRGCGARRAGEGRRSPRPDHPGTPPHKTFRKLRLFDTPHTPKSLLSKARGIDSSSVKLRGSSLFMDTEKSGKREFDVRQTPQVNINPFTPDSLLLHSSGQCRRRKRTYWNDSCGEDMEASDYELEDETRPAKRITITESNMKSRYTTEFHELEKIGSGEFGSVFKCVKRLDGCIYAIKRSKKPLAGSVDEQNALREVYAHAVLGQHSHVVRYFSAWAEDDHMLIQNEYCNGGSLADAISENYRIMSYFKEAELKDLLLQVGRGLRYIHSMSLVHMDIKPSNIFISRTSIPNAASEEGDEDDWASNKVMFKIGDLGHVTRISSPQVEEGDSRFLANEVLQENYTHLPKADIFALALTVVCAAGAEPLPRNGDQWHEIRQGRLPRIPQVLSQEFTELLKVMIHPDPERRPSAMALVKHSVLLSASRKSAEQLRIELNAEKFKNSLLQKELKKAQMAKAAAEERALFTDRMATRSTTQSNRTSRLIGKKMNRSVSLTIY

[3] = target: protein kinases (human kinome) (Homo sapiens, UniProt P51451); settings: for logFC BLK: BLK (P51451), direction down; for logFC of BLK: BLK P51451; for logFC of BLK (P51451): down
protein kinases (human kinome) (Homo sapiens, UniProt P51451), sequence (P51451 whole entry): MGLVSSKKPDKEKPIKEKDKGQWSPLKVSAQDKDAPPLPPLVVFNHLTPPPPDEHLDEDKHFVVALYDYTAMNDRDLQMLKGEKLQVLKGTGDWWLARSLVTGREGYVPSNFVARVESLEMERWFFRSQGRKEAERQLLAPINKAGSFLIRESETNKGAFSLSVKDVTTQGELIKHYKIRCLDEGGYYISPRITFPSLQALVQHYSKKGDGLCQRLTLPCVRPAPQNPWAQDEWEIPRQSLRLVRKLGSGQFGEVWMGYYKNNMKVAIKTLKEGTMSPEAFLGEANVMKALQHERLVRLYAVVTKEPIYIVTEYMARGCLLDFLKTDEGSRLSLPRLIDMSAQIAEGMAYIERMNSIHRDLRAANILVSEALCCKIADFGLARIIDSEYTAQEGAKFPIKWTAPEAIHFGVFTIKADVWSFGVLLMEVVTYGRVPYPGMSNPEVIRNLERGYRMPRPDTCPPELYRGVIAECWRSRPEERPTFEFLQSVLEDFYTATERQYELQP

[4] = Experiment wp107, direction down
[5] = Experiment wp117, direction down
[6] = experiment wp045, direction of change down
[7] = experiment wp103, direction of change down
[8] = experiment wp107, direction of change down
[9] = experiment wp117, direction of change down
[10] = SRC (P12931-2) protein abundance, degrader vs DMSO, down
[11] = AURKB Q96GD4-5, experiment wp137
[12] = CDK9 (P50750-2) protein abundance, degrader vs DMSO, down
[13] = experiment wp137, direction of change down
[14] = experiment wp016, direction of change down

Cc1ccc(NC(=O)c2cccc(C(F)(F)F)c2)cc1N1Cc2cnc(Nc3ccc(N4CCN(Cc5cn(CCCCCOc6cccc7c6C(=O)N(C6CCC(=O)NC6=O)C7=O)nn5)CC4)nc3)nc2N(C)C1=O (stereo not drawn) [DB0646, N-(3-(7-((6-(4-((1-(5-((2-(2,6-Dioxopiperidin-3-yl)-1,3-dioxoisoindolin-4-yl)oxy)pentyl)-1H-1,2,3-triazol-4-yl)methyl)piperazin-1-v)pyridin-3-yl)amino)-1-methyl-2-oxo-1,4-dihydropyrimido[4,5-d]pyrimidin-3(2H)-yl)-4-methylphenyl)-3-(trifluoromethyl)benzamide]
logFC FYN ([1]; Accession P06241-2, experiment wp107): −0.3999
logFC FYN ([1]; Accession P06241-2, experiment wp160, 4 hr): −0.3922
logFC of SRC ([1]; experiment wp045): −0.4152
logFC of SRC ([1]; experiment wp105): −0.4412
logFC of SRC ([1]; experiment wp107): −0.4274
logFC of SRC ([1]; experiment wp117): −0.3839
logFC ([1]; CDK11B P21127-3, experiment wp103): −0.3334
logFC MAP3K20 (Q9NYL2-2) ([1]; Experiment wp045): −1.182
logFC MAPK8 (P45983-4) ([1]; Experiment wp045, direction down): −0.9774
logFC MAP3K20 (Q9NYL2-2) ([1]; Experiment wp103): −0.7004
logFC of MAPK8 (P45983-2) ([1]; Experiment wp103): −0.6109
logFC MAPK8 (P45983-2) ([1]; Experiment wp103, direction down): −0.6109
logFC MAPK8 (P45983-3) ([1]; Experiment wp105, direction down): −0.4094
logFC MAP3K20 (Q9NYL2-2) ([1]; Experiment wp107): −0.7825
logFC of MAPK8 (P45983-2) ([1]; Experiment wp107): −0.723
logFC MAPK8 (P45983-2) [1, 4]: −0.723
logFC TNK2 (Q07912-3) [1, 4]: −0.8258
logFC MAP3K20 (Q9NYL2-2) ([1]; Experiment wp114): −0.8962
logFC MAP3K20 (Q9NYL2-2) ([1]; Experiment wp117): −0.6701
logFC of MAPK8 (P45983-2) ([1]; Experiment wp117): −0.7835
logFC MAPK8 (P45983-2) [1, 5]: −0.7835
logFC TNK2 (Q07912-3) [1, 5]: −0.9833
logFC MAPK8 (P45983-3) ([1]; Experiment wp160, 4 hr, direction down): −0.611
logFC MAPK8 (P45983-3) ([1]; Experiment wp160, 8 hr, direction down): −1.01
logFC ([1]; FER (P16591-3), experiment wp114, direction down): −0.5921
logFC ([1]; FER (P16591-3), experiment wp172, direction down): −1.014
logFC of FER ([1]; experiment wp114): −0.5921
logFC of FER ([1]; experiment wp172): −1.014
logFC FYN ([1]; FYN P06241-2, experiment wp107): −0.3999
logFC FYN ([1]; FYN P06241-2, experiment wp160, 4 hr): −0.3922
logFC ([1]; GK P32189-3, experiment wp114): −0.3632
logFC LCK [1, 6]: −0.5631
logFC LCK [1, 7]: −0.4496
logFC LCK [1, 8]: −0.3963
logFC LCK [1, 9]: −0.4202
logFC ([1]; LIMK2 (P53671-3), experiment wp105, direction down): −0.7299
logFC of LIMK2 ([1]; LIMK2 P53671-3, experiment wp105): −0.7299
logFC ([1]; LYN (P07948-2), experiment wp105): −0.985
logFC MAPK8 ([1]; MAPK8 P45983-4, experiment wp045): −0.9774
logFC MAPK14 ([1]; MAPK14, accession Q16539-2, experiment wp105, direction of change down): −0.5822
logFC MAPK14 ([1]; MAPK14, accession Q16539-2, experiment wp117, direction of change down): −0.6436
logFC MAPK14 ([1]; MAPK14, accession Q16539-2, experiment wp160, 4 hr, direction of change down): −0.7051
logFC MAPK14 ([1]; MAPK14, accession Q16539-2, experiment wp160, 8 hr, direction of change down): −1.092
logFC MAPK14 ([1]; MAPK14 Q16539-2, experiment wp105): −0.5822
logFC MAPK14 ([1]; MAPK14 Q16539-2, experiment wp117): −0.6436
logFC MAPK14 ([1]; MAPK14 Q16539-2, experiment wp160, 4 hr): −0.7051
logFC MAPK14 ([1]; MAPK14 Q16539-2, experiment wp160, 8 hr): −1.092
targets with significantly different degrader efficacy in the different cell lines with no obvious difference in protein expression ([1]; MOLT-4, KELLY, HEK293T): CSK, MAPK9
logFC ([1]; PTK2B (Q14289-2), experiment wp107, direction down): −2.484
logFC ([1]; PTK2B (Q14289-2), experiment wp117, direction down): −2.583
logFC PTK2B [1, 8]: −2.484
logFC PTK2B [1, 9]: −2.583
logFC [1, 10]: −0.4152 and −0.4412 and −0.4274 and −0.3839
logFC ([1]; TAOK2 (Q9UL54-2), experiment wp160, 8 hr): −0.5973
logFC ([1]; TNK2 (Q07912-3), experiment wp107, direction down): −0.8258
logFC ([1]; TNK2 (Q07912-3), experiment wp117, direction down): −0.9833
logFC MAP3K20 (Q9NYL2-2) ([1]; experiment wp045): −1.182
logFC LCK (P06239-3) [1, 6]: −0.5631
logFC MAP3K20 (Q9NYL2-2) ([1]; experiment wp103): −0.7004
logFC CDK11B (P21127-3) [1, 7]: −0.3334
logFC LCK (P06239-3) [1, 7]: −0.4496
logFC of LYN (P07948-2) ([1]; experiment wp105): −0.985
logFC of MAPK8 (P45983-3) ([1]; experiment wp105): −0.4094
logFC MAP3K20 (Q9NYL2-2) ([1]; experiment wp107): −0.7825
logFC LCK (P06239-3) [1, 8]: −0.3963
logFC MAP3K20 (Q9NYL2-2) ([1]; experiment wp114): −0.8962
logFC MAP3K20 (Q9NYL2-2) ([1]; experiment wp117): −0.6701
logFC LCK (P06239-3) [1, 9]: −0.4202
logFC of MAPK8 (P45983-3) ([1]; experiment wp160, 4 hr): −0.611
logFC of MAPK8 (P45983-3) ([1]; experiment wp160, 8 hr): −1.01
logFC TAOK2 (Q9UL54-2) ([1]; experiment wp160, 8 hr, direction of change down): −0.5973
Total no. kinase hits ([1]; number of degraded kinases per library compound): 33
logFC of WEE1 ([2]; experiment wp160, 8 hr): −0.352
logFC WEE1 (P30291-1) ([2]; experiment wp160, 8 hr): −0.352
logFC BLK ([3]; experiment wp103): −1.19
logFC BLK ([3]; experiment wp107): −1.259
logFC BLK ([3]; experiment wp117): −1.275
logFC BLK ([3]; experiment wp152): −1.511
logFC BLK ([3]; experiment wp160, 2 hr): −0.5315
logFC BLK ([3]; experiment wp160, 4 hr): −1.092
logFC BLK ([3]; experiment wp160, 8 hr): −1.434
logFC of BLK ([3]; experiment wp045): −1.314
logFC of BLK (P51451) ([3]; Experiment wp045): −1.314
logFC of BLK (P51451) ([3]; Experiment wp103): −1.19
logFC of BLK (P51451) ([3]; Experiment wp107): −1.259
logFC of BLK (P51451) ([3]; Experiment wp117): −1.275
logFC of BLK (P51451) ([3]; Experiment wp152): −1.511
logFC of BLK (P51451) ([3]; Experiment wp160, 2 hr): −0.5315
logFC of BLK (P51451) ([3]; Experiment wp160, 4 hr): −1.092
logFC of BLK (P51451) ([3]; Experiment wp160, 8 hr): −1.434

CC(C)S(=O)(=O)c1ccccc1Nc1nc(Nc2ccc(N3CCN(CCOCCOCCC(=O)NCCNc4cccc5c4CN(C4CCC(=O)NC4=O)C5=O)CC3)cc2)ncc1Cl (stereo not drawn) [TL13.97]
logFC [1, 11]: −0.7523
logFC AURKB [1, 11]: −0.7523
logFC BUB1B ([1]; Accession O60566-3, experiment wp137, direction down): −0.3313
logFC of SRC ([1]; experiment wp137): −0.4824
logFC of CDK17 ([1]; Accession Q00537-2, experiment wp137): −0.5683
logFC BUB1B ([1]; BUB1B (O60566-3), experiment wp137): −0.3313
logFC [1, 12]: −1.37
logFC PRKAA1 (Q13131-2) ([1]; Experiment wp137, direction down): −0.6678
logFC LCK [1, 13]: −0.8721
logFC RPS6KA1 ([1]; experiment wp137): −0.3757
logFC [1, 10]: −0.4824
logFC CDK9 (P50750-2) ([1]; experiment wp137): −1.37
logFC PRKAA1 (Q13131-2) ([1]; experiment wp137): −0.6678
logFC RPS6KA1 (Q15418-2) ([1]; experiment wp137): −0.3757
logFC of CDK17 (Q00537-2) ([1]; experiment wp137): −0.5683
logFC LCK (P06239-3) [1, 13]: −0.8721
logFC of WEE1 ([2]; experiment wp137): −1.585
logFC WEE1 (P30291-1) ([2]; experiment wp137): −1.585
logFC BLK ([3]; experiment wp137): −2.219
logFC of BLK (P51451) ([3]; Experiment wp137): −2.219

CC(C)S(=O)(=O)c1ccccc1Nc1nc(Nc2ccc(N3CCN(CCOCCNC(=O)CNc4ccc5c(c4)C(=O)N(C4CCC(=O)NC4=O)C5=O)CC3)cc2)ncc1Cl (stereo not drawn) [SK.3.93]
logFC of SRC ([1]; experiment wp016): −0.3456
logFC [1, 12]: −0.6376
logFC PRKAA1 (Q13131-2) ([1]; Experiment wp016, direction down): −0.4738
logFC LCK [1, 14]: −0.7798
logFC RPS6KA1 ([1]; experiment wp016): −0.3413
logFC [1, 10]: −0.3456
logFC CDK9 (P50750-2) ([1]; experiment wp016): −0.6376
logFC PRKAA1 (Q13131-2) ([1]; experiment wp016): −0.4738
logFC RPS6KA1 (Q15418-2) ([1]; experiment wp016): −0.3413
logFC LCK (P06239-3) [1, 14]: −0.7798
logFC WEE1 (P30291-1) ([2]; experiment wp016): −1.176
logFC of BLK ([3]; experiment wp016): −1.502
logFC of BLK (P51451) ([3]; Experiment wp016): −1.502
